Paper PMC7531004, “Discovery of gramicidin A analogues with altered activities by multidimensional screening of a one-bead-one-compound library” (Nature Communications, 2020)
“And” between values parts separate entries of the source, which are not always exact repeats. Equal entries are not always repeated. Where two headings read alike, the source gives them in different places. Where a SMILES comes first, the peptide text is derived from it. [ ]: non-standard residue; d: D form. The star is where a group is joined. NHCH2CH2OH = OCCN*; For = O=C*

Experiments:
[1] = tested on: Enterococcus faecalis JCM5803; conditions: for antibacterial activity/MIC: E. faecalis; for Antibacterial activity MIC: JCM5803
Procedure, shortened: (§1)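 Growth inhibition was scored after 18–24 h at 37 °C in cation-adjusted Mueller Hinton broth, with laked horse blood (5%) included for streptococcal strains. Inocula were standardized by OD 625 and diluted to about 5 × 10^4 CFU/well.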

[2] = tested on: Streptococcus agalactiae JCM5671; conditions: for Antibacterial activity MIC: JCM5671; for antibacterial activity/MIC: S. agalactiae
Procedure, shortened: as §1

[3] = tested on: Listeria monocytogenes 10403S; conditions: for Antibacterial activity MIC: 10403S; for antibacterial activity/MIC: L. monocytogenes
Procedure, shortened: as §1

[4] = tested on: Streptococcus pyogenes SSI-9; conditions: for antibacterial activity/MIC: S. pyogenes; for Antibacterial activity MIC: SSI-9
Procedure, shortened: as §1

[5] = tested on: Streptococcus pneumoniae NBRC 102642; conditions: for Antibacterial activity MIC: NBRC 102642; for antibacterial activity/MIC: S. pneumoniae
Procedure, shortened: as §1

[6] = Membrane disruption assay of purified peptides (carboxyfluorescein leakage); format: biochemical; parameters: key: % lysis; Triton X-100 = 100%, DMSO = 0%; conditions: three replicate lines
[7] = tested on: MSSA1 (methicillin-susceptible Staphylococcus aureus); format: cell-based
[8] = IC50, mammalian cytotoxicity assay
[9] = cytotoxicity against P388 cells/IC50

| antibacterial activity/MIC [1] | Antibacterial activity MIC [1] | Antibacterial activity MIC [2] | antibacterial activity/MIC [2] | Antibacterial activity MIC [3] | antibacterial activity/MIC [3] | antibacterial activity/MIC [4] | Antibacterial activity MIC [4] | Antibacterial activity MIC [5] | antibacterial activity/MIC [5] | SMILES | IC50 [8] | Supplementary Figure 1 dose-response value ([6]; concentration 0.000512 nM) | Supplementary Figure 1 dose-response value ([6]; concentration 0.00256 nM) | Supplementary Figure 1 dose-response value ([6]; concentration 0.0128 nM) | Supplementary Figure 1 dose-response value ([6]; concentration 0.064 nM) | Supplementary Figure 1 dose-response value ([6]; concentration 0.32 nM) | Supplementary Figure 1 dose-response value ([6]; concentration 1.6 nM) | Supplementary Figure 1 dose-response value ([6]; concentration 8 nM) | Supplementary Figure 1 dose-response value ([6]; concentration 40 nM) | Supplementary Figure 1 dose-response value ([6]; concentration 200 nM) | also measured |
| --- | --- | --- | --- | --- | --- | --- | --- | --- | --- | --- | --- | --- | --- | --- | --- | --- | --- | --- | --- | --- | --- |
| 64 µg/mL | 33 µM | > 33 µM | > 64 µg/mL | > 33 µM | > 64 µg/mL | > 64 µg/mL | > 33 µM | 1 µM | 2 µg/mL | CNC(=O)C[C@@H](NC(=O)[C@@H](NC(=O)[C@@H](CC(C)C)NC(=O)[C@H](C)NC(=O)[C@@H](CC(C)C)NC(=O)[C@H](C)NC(=O)CNC(=O)[C@@H](NC=O)C(C)C)C(C)C)C(=O)N[C@@H](Cc1c[nH]c2ccccc12)C(=O)N[C@H](CC(C)C)C(=O)N[C@@H](Cc1c[nH]c2ccccc12)C(=O)N[C@H](CC(C)C)C(=O)N[C@@H](Cc1c[nH]c2ccccc12)C(=O)N[C@@H](C(=O)N[C@@H](Cc1c[nH]c2ccccc12)C(=O)NCCO)[C@H](C)O [B22] (For-VGA[dL]A[dL]V[dD](NHMe)W[dL]W[dL]W[dT]W-NHCH2CH2OH) | > 1000 nM | 5.233 and 5.708 and 3.745 | 6.399 and 0.9122 and 2 | 2.405 and 9.3526 and 2.534 | 4.116 and 2.091 and 9.6371 | 3.439 and -1.283 and 7.2259 | 12.4052 and 7.371 and 12.8868 | 24.0812 and 19.193 and 19.2236 | 21.9455 and 34.569 and 23.6152 | 30.6863 and 31.8474 and 39.9799 | Supplementary Figure 1 dose-response value ([6]; concentration 1000 nM): 57.1747 and 48.6012 and 49.2408; Supplementary Figure 1 dose-response value ([6]; concentration 5000 nM): 70.9515 and 65.7371 and 71.376; antibacterial activity/MIC [7]: > 64 µg/mL |
| 0.5 µg/mL | 0.27 µM | 1.1 µM | 2 µg/mL | 4.3 µM | 8 µg/mL | 0.063 µg/mL | 0.033 µM | 0.0083 µM | 0.016 µg/mL | CC(C)C[C@@H](NC(=O)[C@H](C)NC(=O)CNC(=O)[C@@H](NC=O)C(C)C)C(=O)N[C@@H](C)C(=O)N[C@@H](C(=O)N[C@H](C(=O)N[C@@H](C(=O)N[C@@H](Cc1c[nH]c2ccccc12)C(=O)N[C@H](CC(C)C)C(=O)N[C@@H](Cc1c[nH]c2ccccc12)C(=O)N[C@H](CC(C)C)C(=O)N[C@@H](Cc1c[nH]c2ccccc12)C(=O)N[C@H](CC(C)C)C(=O)N[C@@H](Cc1c[nH]c2ccccc12)C(=O)NCCO)C(C)C)C(C)C)C(C)C [compound 1, Gramicidin A] (For-VGA[dL]A[dV]V[dV]W[dL]W[dL]W[dL]W-NHCH2CH2OH) | 4.86 nM | 1.36 and 3.869 and -1.044 | 3.2 and 1.0665 and -1.239 | 3.406 and 6.277 and 1.505 | 4.522 and 0.6394 and 10.119 | 0.03727 and -1.4564 and 8.0175 | 1.309 and 1.672 and 5.415 | 11.9937 and 6.964 and 7.105 | 14.5572 and 22.409 and 17.147 | 26.5638 and 29.1236 and 30.6096 | IC50 [9]: 5.81 ± 0.99 nM; Supplementary Figure 1 dose-response value ([6]; concentration 1000 nM): 36.4056 and 34.1405 and 30.0737; Supplementary Figure 1 dose-response value ([6]; concentration 5000 nM): 57.2698 and 45.8291 and 46.6701; antibacterial activity/MIC [7]: 32 µg/mL |
| 1 µg/mL | 0.54 µM | 17 µM | 32 µg/mL | 4.3 µM | 8 µg/mL | 0.13 µg/mL | 0.068 µM | 0.0042 µM | 0.0078 µg/mL | CC(C)C[C@@H](NC(=O)[C@H](C)NC(=O)CNC(=O)[C@@H](NC=O)C(C)C)C(=O)N[C@@H](C)C(=O)N[C@@H](C(=O)N[C@H](C(=O)N[C@@H](C(=O)N[C@@H](Cc1c[nH]c2ccccc12)C(=O)N[C@@H](C(=O)N[C@@H](Cc1c[nH]c2ccccc12)C(=O)N[C@@H](C(=O)N[C@@H](Cc1c[nH]c2ccccc12)C(=O)N[C@@H](C(=O)N[C@@H](Cc1c[nH]c2ccccc12)C(=O)NCCO)C(C)C)C(C)C)C(C)C)C(C)C)C(C)C)C(C)C [B03] (For-VGA[dL]A[dV]V[dV]W[dV]W[dV]W[dV]W-NHCH2CH2OH) | 35.9 nM | 5.505 and 15.3461 and 13.2964 | 8.036 and 15.949 and 9.456 | 13.2228 and 16.5208 and 14.0976 | 9.063 and 6.7749 and 3.531 | 12.8598 and 15.0844 and 11.8922 | 5.299 and 14.829 and 8.996 | 22.9494 and 19.7369 and 18.966 | 32.4215 and 16.7903 and 25.2195 | 37.1629 and 34.3426 and 29.4644 | IC50 (Cytotoxicity IC50): 38 nM; IC50 [9]: 37.6 ± 1.56 nM; Supplementary Figure 1 dose-response value ([6]; concentration 1000 nM): 37.6674 and 31.8257 and 42.0921; Supplementary Figure 1 dose-response value ([6]; concentration 5000 nM): 72.3831 and 71.3728 and 73.9246; antibacterial activity/MIC [7]: 32 µg/mL |
